# Measurements published in ChEMBL document CHEMBL1201862, “PubChem BioAssay data set” (2004).
#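 Protocol summary: plate cells (96-well), add compound at 5 concentrations, incubate 48 h, interpolate endpoints linearly. At the GI50, growth is halved.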 The source made the active and inactive calls. No stated cut-off is given here; in the data, active = GI50 up to about 1.1 µM and inactive = higher.
# How the values were obtained:
# Test in all cases: NCI-60 cell line screen, 48 h
# [1] = tested on: DU-145
# [2] = tested on: NCI-H226
# [3] = tested on: MDA-MB-231
# [4] = tested on: HCT-15
# [5] = tested on: UACC-257
# [6] = tested on: 786-0
# [7] = tested on: Hs-578T
# [8] = tested on: MDA-MB-435
# [9] = tested on: OVCAR-5
# [10] = tested on: UO-31
# [11] = tested on: HOP-62
# [12] = tested on: HOP-92
# [13] = tested on: TK-10
# [14] = tested on: A498
# [15] = tested on: COLO 205
# [16] = tested on: CAKI-1
# [17] = tested on: T47D
# [18] = tested on: HCC 2998
# [19] = tested on: SNB-75
SMILES,GI50 [1],GI50 [2],GI50 [3],GI50 [4] [µM],GI50 [5],GI50 [6],GI50 [7],GI50 [8],GI50 [9],GI50 [10],GI50 [11],GI50 [12],GI50 [13],GI50 [14],GI50 [15],GI50 [16],GI50 [17],GI50 [18],GI50 [19]
CC(C)c1cc(C(C)C)c(B(c2ccccc2)c2ccccc2)c(C(C)C)c1Br,> 100 µM (inactive),> 100 µM (inactive),> 100 µM (inactive),> 100,> 100 µM (inactive),> 100 µM (inactive),> 100 µM (inactive),> 100 µM (inactive),> 100 µM (inactive),> 100 µM (inactive),> 100 µM (inactive),> 100 µM (inactive),> 100 µM (inactive),> 100 µM (inactive),> 100 µM (inactive),> 100 µM (inactive),> 100 µM (inactive),> 100 µM (inactive),–
S=c1[nH]c(Cl)cc2nc(Cl)cn12,5.01 µM (inactive),15 µM (inactive),5.43 µM (inactive),4.68,> 100 µM (inactive),3.72 µM (inactive),2.3 µM (inactive),2.09 µM (inactive),–,4.7 µM (inactive),4.84 µM (inactive),17.5 µM (inactive),7.5 µM (inactive),14.4 µM (inactive),2.83 µM (inactive),4.53 µM (inactive),23.4 µM (inactive),8.79 µM (inactive),2.1 µM (inactive)
COc1ccc(CCN2CCOCC2)cc1,> 100 µM (inactive),> 100 µM (inactive),> 100 µM (inactive),> 100,> 100 µM (inactive),> 100 µM (inactive),> 100 µM (inactive),> 100 µM (inactive),> 100 µM (inactive),> 100 µM (inactive),> 100 µM (inactive),> 100 µM (inactive),> 100 µM (inactive),> 100 µM (inactive),> 100 µM (inactive),> 100 µM (inactive),> 100 µM (inactive),> 100 µM (inactive),–
CC(C)(CC#N)c1cc(CC(C)(C)c2cc(CC(C)(C)c3cc(C(C)(C)C4(C)OCCO4)no3)no2)no1,50.4 µM (inactive),36.4 µM (inactive),22.4 µM (inactive),94.2,67.6 µM (inactive),17 µM (inactive),22.8 µM (inactive),> 100 µM (inactive),> 100 µM (inactive),> 100 µM (inactive),27 µM (inactive),–,51.5 µM (inactive),28.9 µM (inactive),> 100 µM (inactive),22.4 µM (inactive),9.08 µM (inactive),> 100 µM (inactive),14.7 µM (inactive)
O=c1[nH]c(Cc2ccccc2)nc2c1sc1nc3ccccc3n12,> 100 µM (inactive),> 100 µM (inactive),> 100 µM (inactive),> 100,> 100 µM (inactive),> 100 µM (inactive),> 100 µM (inactive),> 100 µM (inactive),> 100 µM (inactive),> 100 µM (inactive),–,> 100 µM (inactive),> 100 µM (inactive),> 100 µM (inactive),> 100 µM (inactive),> 100 µM (inactive),60.5 µM (inactive),> 100 µM (inactive),> 100 µM (inactive)
CC(C)(CCC(C)(C)N1OC1c1ccccc1)N1OC1c1ccccc1 (stereo unspecified),88.7 µM (inactive),76.9 µM (inactive),26.4 µM (inactive),28.6,25.1 µM (inactive),54.1 µM (inactive),36.2 µM (inactive),32.8 µM (inactive),–,20 µM (inactive),–,33.4 µM (inactive),22.8 µM (inactive),32 µM (inactive),47.2 µM (inactive),23.4 µM (inactive),41.1 µM (inactive),31.9 µM (inactive),> 100 µM (inactive)
Cc1cccc(-c2cc(O)c3c(C)ccnc3n2)c1,1.05 µM (active),0.495 µM (active),0.745 µM (active),0.261,–,0.564 µM (active),0.356 µM (active),0.0463 µM (active),1.19 µM (inactive),–,0.597 µM (active),–,> 53.1 µM (inactive),0.791 µM (active),0.208 µM (active),0.39 µM (active),0.826 µM (active),1.03 µM (active),0.36 µM (active)
CC(C)OP(=O)(OC(C)C)C(C(C)C)N(C)/C(N)=N\C1=NC(C(F)(F)F)(C(F)(F)F)N=C(C(C(F)(F)F)C(F)(F)F)O1 (stereo unspecified),6.9 µM (inactive),2.11 µM (inactive),1.99 µM (inactive),3.75,3.05 µM (inactive),3.7 µM (inactive),4.99 µM (inactive),1.8 µM (inactive),2.55 µM (inactive),4.47 µM (inactive),3.96 µM (inactive),–,3.61 µM (inactive),5.2 µM (inactive),1.8 µM (inactive),3.12 µM (inactive),3.01 µM (inactive),4.91 µM (inactive),2.42 µM (inactive)
NC(=O)NNc1nc(-c2ccccc2)cs1,> 100 µM (inactive),> 100 µM (inactive),> 100 µM (inactive),> 100,> 100 µM (inactive),> 100 µM (inactive),> 100 µM (inactive),> 100 µM (inactive),> 100 µM (inactive),> 100 µM (inactive),> 100 µM (inactive),–,> 100 µM (inactive),> 100 µM (inactive),> 100 µM (inactive),> 100 µM (inactive),> 100 µM (inactive),> 100 µM (inactive),> 100 µM (inactive)
CC(O)CC(O)(C(F)(F)F)C(F)(F)F (stereo unspecified),> 10 µM (inactive),> 10 µM (inactive),> 10 µM (inactive),> 10,> 10 µM (inactive),> 10 µM (inactive),> 10 µM (inactive),> 10 µM (inactive),–,> 10 µM (inactive),> 10 µM (inactive),–,> 10 µM (inactive),> 10 µM (inactive),> 10 µM (inactive),> 10 µM (inactive),> 10 µM (inactive),> 10 µM (inactive),> 10 µM (inactive)
CCOC(=O)C1C(c2ccc(OC)cc2)c2c(nn(-c3ccccc3)c2O)CC1(O)OCC (stereo unspecified),44.6 µM (inactive),–,39.9 µM (inactive),77.4,44.6 µM (inactive),63.4 µM (inactive),> 100 µM (inactive),4.02 µM (inactive),> 100 µM (inactive),5.46 µM (inactive),> 100 µM (inactive),> 100 µM (inactive),> 100 µM (inactive),> 100 µM (inactive),36.5 µM (inactive),> 100 µM (inactive),12.8 µM (inactive),> 100 µM (inactive),82.4 µM (inactive)
Nc1ncnc2oc(-c3cccs3)nc12,> 100 µM (inactive),> 100 µM (inactive),> 100 µM (inactive),> 100,> 100 µM (inactive),> 100 µM (inactive),> 100 µM (inactive),> 100 µM (inactive),> 100 µM (inactive),> 100 µM (inactive),> 100 µM (inactive),> 100 µM (inactive),> 100 µM (inactive),> 100 µM (inactive),> 100 µM (inactive),–,> 100 µM (inactive),> 100 µM (inactive),–
